Measurements from patent publication US8952024B2, “Herbicidal pyrimidone derivatives” (E I du Pont de Nemours and Company, priority 2009, dated 2015).

Assays:
Test in all cases: Test D pre-/postemergence plant response
Type in all cases: in vivo
[1] = test system: chickweed (common chickweed, Stellaria media); conditions: Postemergence
Procedure, shortened: (§1)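 Greenhouse assay: sown seeds in loam/sand received preemergence spray; simultaneously, emerged seedlings (1- to 4-leaf, 2–18 cm) got postemergence spray of the same surfactant-containing formulation. Rating at 14–21 days by visual comparison with controls, 0 = no effect to 100 = complete control.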

[2] = test system: nutsedge (purple nutsedge, Cyperus rotundus)
Procedure, shortened: as §1

[3] = test system: purslane (common purslane, Portulaca oleracea)
Procedure, shortened: as §1

[4] = test system: spanishneedles (Bidens bipinnata)
Procedure, shortened: as §1

[5] = test system: large crabgrass (Digitaria sanguinalis)
Procedure, shortened: as §1

[6] = test system: morningglory (pitted morningglory, Ipomoea lacunosa)
Procedure, shortened: as §1

[7] = test system: barnyardgrass (Echinochloa crus-galli)
Procedure, shortened: as §1

[8] = test system: dallisgrass (Paspalum dilatatum)
Procedure, shortened: as §1

[9] = test system: signalgrass (broadleaf signalgrass, Brachiaria platyphylla)
Procedure, shortened: as §1

[10] = test system: Russian thistle (Salsola kali)
Procedure, shortened: as §1

[11] = test system: itchgrass (Rottboellia cochinchinensis)
Procedure, shortened: as §1

[12] = test system: guineagrass (Panicum maximum)
Procedure, shortened: as §1

[13] = test system: Surinam grass (Brachiaria decumbens)
Procedure, shortened: as §1

[14] = test system: black mustard (Brassica nigra)
Procedure, shortened: as §1

kochia (Kochia scoparia) = test system: kochia (Kochia scoparia)
Procedure, shortened: as §1

[15] = test system: sowthistle (common sowthistle, Sonchus oleraceous)
Procedure, shortened: as §1

[16] = Postemergence, 16 g ai/ha, scale 0 to 100
[17] = Postemergence, 31 g ai/ha, scale 0 to 100
[18] = Postemergence, 125 g ai/ha, scale 0 to 100 (0 no effect, 100 complete control)
[19] = Postemergence, 62 g ai/ha, scale 0 to 100 (0 no effect, 100 complete control)
[20] = Preemergence, 16 g ai/ha, scale 0 to 100, 0 no effect, 100 complete control
[21] = Preemergence, 31 g ai/ha, scale 0 to 100 (0 no effect, 100 complete control)
[22] = Preemergence, 62 g ai/ha, scale 0 to 100
[23] = Preemergence, 125 g ai/ha, scale 0 to 100
[24] = Postemergence, 31 g ai/ha, scale 0 to 100 (0 no effect, 100 complete control)

In the case of `O=C1CCCC(O)=C1C(=O)c1cnc(C2CC2)n(-c2ccccc2)c1=O` [Compound 87], the “Plant response rating, Chickweed” value ([1]; 16 g ai/ha, scale 0 to 100) was 75, the “Plant response rating, Chickweed” value ([1]; 31 g ai/ha, scale 0 to 100) was 75 and the “Plant response rating, Chickweed” value ([1]; 125 g ai/ha, scale 0 to 100 (0 no effect, 100 complete control)) was 100. The “Plant response rating, Chickweed” value ([1]; 62 g ai/ha, scale 0 to 100 (0 no effect, 100 complete control)) was 75, the “Plant response rating, Nutsedge, Purple” value [2, 16] was 0 and the “Plant response rating, Nutsedge, Purple” value [2, 17] was 10. The “Plant response rating, Nutsedge, Purple” value [2, 18] was 50, the “Plant response rating, Nutsedge, Purple” value [2, 19] was 20 and the “Plant response rating, Nutsedge, Purple” value [2, 20] was 0. The “Plant response rating, Nutsedge, Purple” value [2, 21] was 5, the “Plant response rating, Nutsedge, Purple” value [2, 22] was 50 and the “Plant response rating, Nutsedge, Purple” value [2, 23] was 75. For the same molecule, the “Plant response rating, Purslane” value [3, 16] was 10, the “Plant response rating, Purslane” value [3, 17] was 25 and the “Plant response rating, Purslane” value [3, 18] was 35. For the same molecule, the “Plant response rating, Purslane” value [3, 19] was 35, the “Plant response rating, Purslane” value [3, 20] was 70 and the “Plant response rating, Purslane” value [3, 21] was 100. For the same molecule, the “Plant response rating, Purslane” value [3, 22] was 100, the “Plant response rating, Purslane” value [3, 23] was 100 and the “Plant response rating, Spanishneedles” value [4, 16] was 60. The “Plant response rating, Spanishneedles” value [4, 17] was 60, the “Plant response rating, Spanishneedles” value [4, 18] was 70 and the “Plant response rating, Spanishneedles” value [4, 19] was 60. The “Plant response rating, Spanishneedles” value [4, 20] was 0, the “Plant response rating, Spanishneedles” value [4, 21] was 65 and the “Plant response rating, Spanishneedles” value [4, 23] was 98. The “Plant response rating, Crabgrass, Large” value [5, 16] was 40, the “Plant response rating, Crabgrass, Large” value [5, 17] was 65 and the “Plant response rating, Crabgrass, Large” value [5, 18] was 75. For the same molecule, the “Plant response rating, Crabgrass, Large” value [5, 19] was 70, the “Plant response rating, Crabgrass, Large” value [5, 20] was 50 and the “Plant response rating, Crabgrass, Large” value [5, 21] was 75. For the same molecule, the “Plant response rating, Crabgrass, Large” value [5, 22] was 95, the “Plant response rating, Crabgrass, Large” value [5, 23] was 100 and the “Plant response rating, Morningglory” value [6, 16] was 40. The “Plant response rating, Morningglory” value [6, 17] was 40, the “Plant response rating, Morningglory” value [6, 18] was 50 and the “Plant response rating, Morningglory” value [6, 19] was 40. The “Plant response rating, Morningglory” value [6, 20] was 10, the “Plant response rating, Morningglory” value [6, 22] was 80 and the “Plant response rating, Morningglory” value [6, 23] was 95. For the same molecule, the “Plant response rating, Barnyardgrass” value [7, 16] was 35, the “Plant response rating, Barnyardgrass” value [7, 24] was 50 and the “Plant response rating, Barnyardgrass” value [7, 18] was 70. The “Plant response rating, Barnyardgrass” value [7, 19] was 60, the “Plant response rating, Barnyardgrass” value [7, 20] was 0 and the “Plant response rating, Barnyardgrass” value [7, 21] was 5. The “Plant response rating, Barnyardgrass” value [7, 22] was 50, the “Plant response rating, Barnyardgrass” value [7, 23] was 95 and the “Plant response rating, Dallisgrass” value [8, 16] was 25. For the same molecule, the “Plant response rating, Dallisgrass” value [8, 17] was 25, the “Plant response rating, Dallisgrass” value [8, 18] was 75 and the “Plant response rating, Dallisgrass” value [8, 19] was 50. For the same molecule, the “Plant response rating, Dallisgrass” value [8, 20] was 50, the “Plant response rating, Dallisgrass” value [8, 21] was 50 and the “Plant response rating, Dallisgrass” value [8, 22] was 80. For the same molecule, the “Plant response rating, Dallisgrass” value [8, 23] was 98, the “Plant response rating, Signalgrass” value [9, 16] was 20 and the “Plant response rating, Signalgrass” value [9, 17] was 30. The “Plant response rating, Signalgrass” value [9, 18] was 60, the “Plant response rating, Signalgrass” value [9, 19] was 60 and the “Plant response rating, Signalgrass” value [9, 20] was 0. For the same molecule, the “Plant response rating, Signalgrass” value [9, 21] was 0, the “Plant response rating, Signalgrass” value [9, 23] was 75 and the “Plant response rating, Russian Thistle” value [10, 18] was 35. For the same molecule, the “Plant response rating, Russian Thistle” value [10, 20] was 50, the “Plant response rating, Russian Thistle” value [10, 21] was 75 and the “Plant response rating, Russian Thistle” value [10, 23] was 100. For the same molecule, the “Plant response rating, Itchgrass” value [11, 16] was 0, the “Plant response rating, Itchgrass” value [11, 17] was 0 and the “Plant response rating, Itchgrass” value [11, 18] was 30. The “Plant response rating, Itchgrass” value [11, 19] was 30, the “Plant response rating, Itchgrass” value [11, 20] was 0 and the “Plant response rating, Itchgrass” value [11, 21] was 20. For the same molecule, the “Plant response rating, Itchgrass” value [11, 22] was 20, the “Plant response rating, Itchgrass” value [11, 23] was 20 and the “Plant response rating, Guineagrass” value [12, 16] was 10. The “Plant response rating, Guineagrass” value [12, 17] was 20, the “Plant response rating, Guineagrass” value [12, 18] was 30 and the “Plant response rating, Guineagrass” value [12, 19] was 20. The “Plant response rating, Guineagrass” value [12, 20] was 0, the “Plant response rating, Guineagrass” value [12, 21] was 0 and the “Plant response rating, Guineagrass” value [12, 22] was 50. The “Plant response rating, Guineagrass” value [12, 23] was 75, the “Plant response rating, Surinam Grass” value [13, 16] was 30 and the “Plant response rating, Surinam Grass” value [13, 17] was 40. The “Plant response rating, Surinam Grass” value [13, 18] was 40, the “Plant response rating, Surinam Grass” value [13, 19] was 40 and the “Plant response rating, Surinam Grass” value [13, 20] was 0. The “Plant response rating, Surinam Grass” value [13, 21] was 50, the “Plant response rating, Surinam Grass” value [13, 23] was 100 and the “Plant response rating, Black Mustard” value [14, 16] was 40. For the same molecule, the “Plant response rating, Black Mustard” value [14, 24] was 65, the “Plant response rating, Black Mustard” value [14, 18] was 100 and the “Plant response rating, Black Mustard” value [14, 19] was 100. The “Plant response rating, Black Mustard” value [14, 20] was 75, the “Plant response rating, Black Mustard” value [14, 21] was 75 and the “Plant response rating, Black Mustard” value [14, 22] was 100. The “Plant response rating, Black Mustard” value [14, 23] was 100, the “Plant response rating, Kochia” value (kochia (Kochia scoparia); [16]) was 25 and the “Plant response rating, Kochia” value (kochia (Kochia scoparia); [17]) was 35. For the same molecule, the “Plant response rating, Kochia” value (kochia (Kochia scoparia); [18]) was 60, the “Plant response rating, Kochia” value (kochia (Kochia scoparia); [19]) was 35 and the “Plant response rating, Kochia” value (kochia (Kochia scoparia); [20]) was 65. The “Plant response rating, Kochia” value (kochia (Kochia scoparia); [21]) was 98, the “Plant response rating, Kochia” value (kochia (Kochia scoparia); [22]) was 100 and the “Plant response rating, Kochia” value (kochia (Kochia scoparia); [23]) was 100. The “Plant response rating, Sowthistle” value [15, 16] was 90, the “Plant response rating, Sowthistle” value [15, 17] was 98 and the “Plant response rating, Sowthistle” value [15, 18] was 100. For the same molecule, the “Plant response rating, Sowthistle” value [15, 19] was 98, the “Plant response rating, Sowthistle” value [15, 20] was 98 and the “Plant response rating, Sowthistle” value [15, 21] was 100. For the same molecule, the “Plant response rating, Sowthistle” value [15, 23] was 100.
